Literature values, collected in paper PMC9898036, “VIP152 is a selective CDK9 inhibitor with pre-clinical in vitro and in vivo efficacy in chronic lymphocytic leukemia” (Leukemia, 2022).

Test system: CLL patients
Conditions: cited from earlier work

CCc1cnn2c(NCc3ccc[n+]([O-])c3)cc(N3CCCC[C@H]3CCO)nc12 [dinaciclib]
patients having a partial response: 64%
